Source: patent US20210353577A1, “METHODS FOR THE PREPARATION OF A LEVOTHYROXINE SOLUTION” (EMP Levo US B.V., priority 2016, published 2021)
Read-outs that look alike come from different tables or passages of the source.

Experiments:
[1] = cited from earlier work; for behaviour in an aqueous solution: GB2191695
[2] = test system: micro-organisms as shown in the tables 10A-F; experiment: Efficacy of antimicrobial preservation, overall judgement; assay type: cell-based; conditions: Ph. Eur. 9.0, section 5.1.3; in oral levothyroxine solution
Text: Preservation Efficacy Tests […] As comparison, sample 1 of U.S. Pat. No. 9,345,722 has been prepared, in accordance with example 6 of U.S. Pat. No. 9,345,722. The test consists of challenging the sample solution with a prescribed inoculum of suitable micro-organisms as shown in the tables 10A-F, storing the inoculated solution at ambient temperature, avoiding sunlight, withdrawing samples from the container at specified intervals of time and counting the micro-organisms in the samples so removed. The preservative properties of the solution are adequate if, in the conditions of the test, there is a significant fall or no increase, as appropriate, in the number of micro-organisms in the inoculated solution after 14 and 28 days. ATCC stands for the deposit number of the micro-organism at the American Type Culture Collection ATCC.

Row | Structure (SMILES) | efficacy of antimicrobial preservation in words [2] | other results
1 | N[C@@H](Cc1cc(I)c(Oc2cc(I)c(O)c(I)c2)c(I)c1)C(=O)[O-].[Na+] [Levothyroxine sodium, sodium (2S)-2-amino-3-[4-(4-hydroxy-3,5-diiodophenoxy)-3,5-diiodophenyl]-propanoate] |  | solubility in 96% ethanol ([1]; 96% ethanol): slightly soluble; solubility in water ([1]; water): very slightly soluble
2 | O=C(O)c1ccccc1 [benzoic acid] | comply with the relevant criteria | 
3 | N[C@@H](Cc1cc(I)c(Oc2cc(I)c(O)c(I)c2)c(I)c1)C(=O)O [levothyroxine, 3,5,3′,5′-tetraiodo-L-thyronine] |  | behaviour in an aqueous solution ([1]; pH 11-12): dissolves; behaviour in an aqueous solution ([1]; pH lowered further to pH 5-6): formation of a precipitate; behaviour in an aqueous solution ([1]; pH lowered to pH 7): white pale suspension
4 | O=C([O-])c1ccccc1.[K+] [potassium benzoate] | results similar to that of sodium benzoate | 
5 | C/C=C/C=C/C(=O)[O-].[K+] [potassium sorbate] | results similar to that of sorbic acid | 
6 | O=C([O-])c1ccccc1.[Na+] [sodium benzoate] | comply with the relevant criteria | 
7 | COC(=O)c1ccc(O)cc1.[Na] [sodium methyl paraben, sodium methyl parahydroxybenzoate] | less efficient preservative | 
8 | C/C=C/C=C/C(=O)[O-].[Na+] [sodium sorbate] | results similar to that of sorbic acid | 
9 | C/C=C/C=C/C(=O)O [sorbic acid] | comply with the relevant criteria | 
